Series [1] has as its system SARS-CoV-2. The settings on record: Vero E6 cells; for inhibition of SARS-CoV-2 in compound dilution series: 4 µM to 0.062 µM, 24 h post-infection.
In series [2] the test system is SARS-CoV-2. Put plainly: microbe, parasite or virus in culture. The settings on record: Severe acute respiratory syndrome coronavirus 2, Vero C1008, 24 h.
Series [3] relates to SARS-CoV-2. The experiment in a line: Survival screen: SARS-CoV-2-induced CPE, crystal violet staining. The settings on record: Vero E6 cells, 1 µM, 2 h pretreatment, MOI 0.01, 48 h. In kind it is cell-based. Here is the method: Vero E6 cells were seeded in 96-well clear bottom, black wall plates (Costar, Tewksbury, MA, USA), at a density of 20,000 cells per well, one day prior to the experiment. Cells were pretreated for 2 h with 1 µM of each compound contained in the PRB. Remdesivir, K22 [17], and vehicle controls (DMSO) were included in each plate. Subsequently, cells were infected with SARS-CoV-2 at a multiplicity of infection (MOI) of 0.01 in compound-containing medium and incubated at 37 °C in a humidified incubator with 5% CO2. Uninfected (mock) controls were included in each plate. At 48 h post-infection (hpi), cells were fixed with 4% (v/v) neutral buffered formalin (Formafix AG, Hittnau, Switzerland) and stained with crystal violet. Cell viability and cytotoxicity were assessed in parallel, in identically treated, uninfected plates. […]
To identify potential antiviral compounds against SARS-CoV-2 replication, 201 antibacterial, 46 antifungal and 153 antiviral molecules included in the PRB were screened using a conservative concentration of 1 µM. […] Cell survival was scored from 0 (virus-induced cytopathogenic effects; CPE) to 1 (no CPE), upon evaluation of SARS-CoV-2-induced CPE using crystal violet staining (Figure 1A). The cytotoxicity and cell viability were assessed on uninfected plates processed in parallel, to exclude detrimental effects of the compounds on the cells. […]

A short description of series [4]: CellTiter-Glo 2.0 cell viability assay on Vero E6 cells. To be noted: African green monkey, Vero E6 cells (uninfected). (In ATP-based viability assays light output follows the ATP content of the culture.)
The nature of series [5]: CellTox green cytotoxicity assay on Vero E6 cells. To be noted: African green monkey, Vero E6 cells (uninfected).
A short description of series [6]: CC50 determination on Calu-3 cells (cell viability). The settings on record: human.
Series [7] deals with Vero E6 cells. The experiment in a line: CellTiter-Glo 2.0 cell viability assay on Vero E6 cells. The settings on record: Vero E6 cells, uninfected plates, 48 h.
Series [8] deals with Vero E6 cells. The experiment in a line: CellTox green cytotoxicity assay on Vero E6 cells. To be noted: Vero E6 cells, uninfected plates, 48 h.
The test system of series [9] is SARS-CoV-2. Put plainly: microbe, parasite or virus in culture. In kind it is cell-based. To be noted: Severe acute respiratory syndrome coronavirus 2; Calu-3 cells, percentage of virus-infected cells, 2 h pretreatment, fixed 48 h post-infection.
Series [10] is described as follows: in vitro. The settings on record: African green monkey.
The test system of series [11] is SARS-CoV-2. Put plainly: in vitro.
The nature of series [12]: in vitro. The settings on record: African green monkey. This is another data set of the same source.
Series [13] deals with SARS-CoV-2. The experiment in a line: Time-of-addition experiment in Vero E6 cells. The format is cell-based. The settings on record: 10 μM.
In series [14] the test system is SARS-CoV-2. The format is cell-based. To be noted: Vero E6 supernatants, dose-dependent, TCID50.
Setting [15] is: Selective Index (SI), CC50 divided by EC50, Vero E6 cells.

Entries after “also recorded” stand apart in the source; their conditions may differ. Where two headings read alike, the source gives them in different places. Bounds are passed on as bounds.

With `CCN(CC)CCCC(C)Nc1ccnc2cc(Cl)ccc12` (centres unmarked) [Chloroquine], in the series with SARS-CoV-2 [1], the “inhibition of SARS-CoV-2 in compound dilution series” value is “inhibited SARS-CoV-2 in a dose-dependent manner”. In the series with SARS-CoV-2 [2], this compound came in with an EC90 of 10.4 µM.

In the case of `O=C(N/C(=C\c1ccccc1)C(=O)N1CCC(O)(c2ccc(Br)cc2)CC1)c1ccccc1` [K22], the “inhibition of SARS-CoV-2-induced CPE in the survival screen” value with SARS-CoV-2 [3] is on record as “did not show any inhibitory activity; also recorded: did not inhibit SARS-CoV-2 infection”.

Consider `CCCCCCCCCN1C[C@H](O)[C@@H](O)[C@H](O)[C@H]1CO` [NN-DNJ, N-Nonyl Deoxynojirimycin], for which the CC50 at 48 h in [4], in series [5] and in series [6] was greater than 100 µM in each case. The “inhibition of SARS-CoV-2 in compound dilution series” value in the series on SARS-CoV-2 [1] is on record as “inhibited SARS-CoV-2 in a dose-dependent manner”.

In the case of `Cc1ccc(C)c(OCCCCCCN2C[C@H](O)[C@@H](O)[C@H](O)[C@H]2CO)c1` [PBDNJ0803], the CC50 at 48 h in series [4], in [5] and in series [6] was greater than 100 µM each time. For the same compound, in the series on SARS-CoV-2 [1], the “inhibition of SARS-CoV-2 in compound dilution series” value was “inhibited SARS-CoV-2 in a dose-dependent manner”.

With `CCC(CC)COC(=O)[C@H](C)N[P@](=O)(OC[C@H]1O[C@@](C#N)(c2ccc3c(N)ncnn23)[C@H](O)[C@@H]1O)Oc1ccccc1` [Remdesivir], the “influence on cell viability in the screen” value in the series on Vero E6 cells [7] was “did not influence”. The “influence on cell cytotoxicity in the screen” value with Vero E6 cells [8] is given as “did not influence cell cytotoxicity”. In addition, in the series with SARS-CoV-2 [9], the EC50 is 0.17 µM. Also, the “Selective Index (SI), CC50 divided by EC50” value in the series on SARS-CoV-2 [1] is reported as greater than 73.85. In addition, the CC50 in the series “in vitro [10]” and in the series “in vitro [12]” was greater than 100 µM each time. The compound further gave an EC90 with SARS-CoV-2 [2] of 3.39 µM. In the series with SARS-CoV-2 [11] (setting [15]), the selectivity ratio was greater than 73.8.

With `Cc1nc(-c2ccc([C@@H]3N(C)c4ccc(F)cc4C(=O)N3c3ccccc3)s2)cs1` [Retro-2.1], in the series on SARS-CoV-2 [13] (MOI 0.01, 24 h post-infection), the “inhibitory effect on SARS-CoV-2-infected cells, treatment after infection (condition 3)” value is given as “most pronounced inhibitory effect”. Besides, the “inhibitory effect on SARS-CoV-2-infected cells, treatment during infection (condition 2)” value in the series with SARS-CoV-2 [13] (MOI 0.01, 24 h post-infection) is reported as “more pronounced inhibition”. In addition, the “inhibitory effect on SARS-CoV-2-infected cells, treatment prior to infection (condition 1)” value in the series with SARS-CoV-2 [13] (MOI 0.01, 24 h post-infection) is “only a marginal reduction”. For the same compound, the “reduction in viral titer, treatment after infection (condition 3)” value in the series with SARS-CoV-2 [13] (supernatant at 24 h post-infection) is greater than 1000 fold. For the same compound, the CC50 at 48 h in [4], in [5] and in series [6] was greater than 100 µM each time. Moreover, the “reduction in viral titer” value in the series on SARS-CoV-2 [14] is given as “strongest reduction”. The EC50 in the series with SARS-CoV-2 [9] turned out to be 0.08 µM. Also, the “inhibition of SARS-CoV-2 in compound dilution series” value in the series on SARS-CoV-2 [1] is given as “inhibited SARS-CoV-2 in a dose-dependent manner”. Besides, it took 1.03 µM to reach the 90% level in the series on SARS-CoV-2 [2] (EC90). The selectivity ratio with SARS-CoV-2 [11] is greater than 239.

`CN1CCN(Cc2ccc(-c3cnc4[nH]cc(-c5ccc6[nH]ccc6c5)c4c3)cc2)CC1` [URMC-099-C]: the CC50 at 48 h in [4] worked out at 14.7 µM; in series [5] it was 24.9 µM; in [6] it was 15.5 µM. In addition, in the series on SARS-CoV-2 [1], the “Selective Index (SI), CC50 divided by EC50” value amounted to 50.69. Further, the “inhibition of SARS-CoV-2 in compound dilution series” value in the series with SARS-CoV-2 [1] is “inhibited SARS-CoV-2 in a dose-dependent manner”. The compound further showed an EC90 in the series with SARS-CoV-2 [2] of 1.83 µM. The selectivity ratio in the series with SARS-CoV-2 [11] (setting [15]) worked out at 50.7.

A word on the EC90: it is the concentration at which the effect reaches the 90% level. By EC50 is commonly meant the concentration giving half of the maximal effect.

Source of the values: publication PMC7760777 (Microorganisms, 2020).
